Series [1] concerns the target T1, CYP3A4 (Homo sapiens, UniProt P08684).
T1 construct: purchased Invitrogen Corporation Vivid CYP450 Screening Kit (catalogue number not given)
Nature of the series: Cytochrome P450 (CYP450) inhibition assay, Vivid fluorescence, CYP3A4. Conditions: P450 Baculosomes (CYP3A4), probe Vivid substrate (fluorogenic, not named). Format: in vitro ADME.

The subject of series [2] is sodium channel. Format: cell-based, human or rat. The note with it: known cell line that expresses a sodium channel.
For series [3], the target named is CYP2C19 (Homo sapiens, UniProt P33261). Briefly: in vitro. An excerpt:
(§1) CYP450 (CYP) is a designation for a superfamily of enzymes. Each family consists of one or more subfamilies and each subfamily contains one or more specific CYP isoforms. The Cytochrome P450 (CYP450) Inhibition Assay is a fluorescence-based assay using a cytochrome CYP isozyme for screening of compounds of the invention to determine the level of CYP inhibition by a specific compound. The assay is based on the CYP inhibition kit described by Vivid CYP450 Screening Kit Protocol, 2005, Invitrogen Corporation (Invitrogen Corporation, 1600 Faraday Avenue, Carlsbad, Calif. 92008, USA).
(§2) This assay is designed to assess compounds by quantifying the inhibition of the predominant human CYP isozymes involved in hepatic drug metabolism. […] The standard method for evaluating specific CYP isozyme inhibition is to determine the conversion rate of a probe substrate into its metabolite, in the presence and absence of the potential inhibitor. Quantification of the metabolite is achieved by HPLC or by using a probe substrate (Table 3) that is metabolized into a fluorescent product (fluorescent assay).
(§3) This assay can be used for single concentration screening or for IC50 determination. In a single concentration screening assay, the final assay concentration of the test compound is 10 μM. In an IC50 determination assay, IC50 may be determined using a 3, 6, or 12 point curve in triplicate with a chosen starting concentration diluted serially.
(§4) In the Preparation Stage, the test compounds, controls (acetonitrile (ACN) or Dimethyl sulfoxide (DMSO) and No Baculosomes), and known inhibitors (Table 4) were diluted to 10% ACN or DMSO in water at appropriate concentrations.

For series [4], the target named is CYP2C9 (Homo sapiens, UniProt P11712). Nature of the series: in vitro.
Source text: as §1, §2, §3, §4

In series [5] the test system is L6 (Nav1.4 and 1.5). Format: cell-based, rat.
Series [6] has as its target PC12 (Nav1.2) (Rattus norvegicus, UniProt P04775).
In series [7] the test system is CHO-K1 (NaV1.4). Format: cell-based, Chinese Hamster.
In series [8] the test system is SH-SY5Y (NaV1.9 and NaV1.7). Format: cell-based, Human.
Series [9] concerns the target SK-N-BE2C (NaV1.8) (Homo sapiens, UniProt Q9Y5Y9). Format: cell-based.
In series [10] the target is CYP2D6 (Homo sapiens, UniProt P10635). Nature of the series: in vitro.
Source text: as §1, §2, §3, §4

T1 sequence (P08684 whole entry): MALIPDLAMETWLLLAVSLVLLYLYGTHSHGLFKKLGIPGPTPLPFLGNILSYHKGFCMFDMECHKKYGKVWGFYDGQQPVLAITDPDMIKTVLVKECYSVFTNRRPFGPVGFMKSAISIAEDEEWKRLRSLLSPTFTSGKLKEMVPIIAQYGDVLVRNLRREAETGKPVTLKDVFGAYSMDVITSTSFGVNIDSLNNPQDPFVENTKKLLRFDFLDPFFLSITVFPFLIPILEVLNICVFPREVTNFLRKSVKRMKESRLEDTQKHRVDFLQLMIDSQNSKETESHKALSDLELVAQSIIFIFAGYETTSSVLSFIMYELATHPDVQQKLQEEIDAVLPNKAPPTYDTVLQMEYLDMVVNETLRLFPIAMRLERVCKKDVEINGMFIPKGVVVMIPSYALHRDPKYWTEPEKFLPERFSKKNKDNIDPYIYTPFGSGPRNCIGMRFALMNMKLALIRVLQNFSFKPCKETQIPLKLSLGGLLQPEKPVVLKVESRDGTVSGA
CYP2C9, sequence (P11712 whole entry): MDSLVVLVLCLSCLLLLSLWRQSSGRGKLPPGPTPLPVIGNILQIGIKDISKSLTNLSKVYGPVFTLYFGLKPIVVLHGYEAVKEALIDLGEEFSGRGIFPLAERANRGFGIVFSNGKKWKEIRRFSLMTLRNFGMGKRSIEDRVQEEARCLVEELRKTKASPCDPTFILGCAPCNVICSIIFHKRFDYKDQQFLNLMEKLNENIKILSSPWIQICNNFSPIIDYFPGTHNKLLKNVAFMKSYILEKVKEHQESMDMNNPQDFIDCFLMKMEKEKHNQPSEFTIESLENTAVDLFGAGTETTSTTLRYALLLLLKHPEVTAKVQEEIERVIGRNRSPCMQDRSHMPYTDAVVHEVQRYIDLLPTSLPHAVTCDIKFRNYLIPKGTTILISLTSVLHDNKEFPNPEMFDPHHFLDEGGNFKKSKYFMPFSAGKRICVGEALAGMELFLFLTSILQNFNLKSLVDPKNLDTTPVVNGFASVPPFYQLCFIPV
CHO-K1 (NaV1.4), sequence (A0A9J7H6F9 1-1930): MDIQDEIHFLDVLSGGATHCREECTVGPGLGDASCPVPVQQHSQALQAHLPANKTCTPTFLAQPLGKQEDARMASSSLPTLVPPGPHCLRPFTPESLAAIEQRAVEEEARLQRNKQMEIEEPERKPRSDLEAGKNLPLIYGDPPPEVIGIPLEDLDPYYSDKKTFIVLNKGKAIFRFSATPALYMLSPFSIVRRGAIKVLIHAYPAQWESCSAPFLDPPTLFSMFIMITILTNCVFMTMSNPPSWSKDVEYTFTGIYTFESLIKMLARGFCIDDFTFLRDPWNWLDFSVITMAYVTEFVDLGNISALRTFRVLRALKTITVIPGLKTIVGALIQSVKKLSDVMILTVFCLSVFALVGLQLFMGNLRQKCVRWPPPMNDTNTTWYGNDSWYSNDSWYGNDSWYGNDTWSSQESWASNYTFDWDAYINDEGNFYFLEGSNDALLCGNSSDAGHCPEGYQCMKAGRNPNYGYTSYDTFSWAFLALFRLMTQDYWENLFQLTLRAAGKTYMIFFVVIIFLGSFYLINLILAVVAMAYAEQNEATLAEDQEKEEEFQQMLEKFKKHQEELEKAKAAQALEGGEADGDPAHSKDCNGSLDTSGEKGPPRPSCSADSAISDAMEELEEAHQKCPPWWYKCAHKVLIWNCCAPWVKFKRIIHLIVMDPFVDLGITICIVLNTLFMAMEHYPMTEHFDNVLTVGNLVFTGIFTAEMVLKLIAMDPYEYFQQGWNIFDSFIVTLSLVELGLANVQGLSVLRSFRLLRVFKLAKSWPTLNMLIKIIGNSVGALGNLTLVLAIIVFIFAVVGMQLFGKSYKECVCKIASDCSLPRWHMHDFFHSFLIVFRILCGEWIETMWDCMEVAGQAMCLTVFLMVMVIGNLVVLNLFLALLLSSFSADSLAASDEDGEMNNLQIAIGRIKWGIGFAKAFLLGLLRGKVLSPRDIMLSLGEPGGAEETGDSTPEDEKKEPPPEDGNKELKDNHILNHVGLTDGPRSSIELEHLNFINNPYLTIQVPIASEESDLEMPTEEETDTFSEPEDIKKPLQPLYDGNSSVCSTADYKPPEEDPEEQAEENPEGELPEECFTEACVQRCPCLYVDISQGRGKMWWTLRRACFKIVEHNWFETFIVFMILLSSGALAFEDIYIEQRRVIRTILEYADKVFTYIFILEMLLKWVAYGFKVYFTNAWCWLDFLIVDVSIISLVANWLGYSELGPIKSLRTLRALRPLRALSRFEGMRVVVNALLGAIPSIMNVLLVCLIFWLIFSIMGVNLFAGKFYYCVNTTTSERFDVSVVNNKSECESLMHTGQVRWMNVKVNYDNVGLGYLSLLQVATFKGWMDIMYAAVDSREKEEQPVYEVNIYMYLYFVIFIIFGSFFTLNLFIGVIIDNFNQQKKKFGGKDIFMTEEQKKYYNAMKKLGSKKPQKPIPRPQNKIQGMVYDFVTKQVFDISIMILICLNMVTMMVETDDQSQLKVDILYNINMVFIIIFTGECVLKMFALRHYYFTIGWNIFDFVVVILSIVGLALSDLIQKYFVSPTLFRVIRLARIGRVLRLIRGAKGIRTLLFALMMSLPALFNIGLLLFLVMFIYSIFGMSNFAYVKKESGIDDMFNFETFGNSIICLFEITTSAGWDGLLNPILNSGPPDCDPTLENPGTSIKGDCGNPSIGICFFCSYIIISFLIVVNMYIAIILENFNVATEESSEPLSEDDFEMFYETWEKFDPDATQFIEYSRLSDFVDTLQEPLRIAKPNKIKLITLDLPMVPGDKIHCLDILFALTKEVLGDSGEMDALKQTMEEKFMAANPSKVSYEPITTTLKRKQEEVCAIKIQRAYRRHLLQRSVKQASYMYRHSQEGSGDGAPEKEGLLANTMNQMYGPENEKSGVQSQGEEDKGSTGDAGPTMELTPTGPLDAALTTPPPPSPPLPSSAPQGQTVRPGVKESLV
PC12 (Nav1.2), sequence (P04775 whole entry, looked up): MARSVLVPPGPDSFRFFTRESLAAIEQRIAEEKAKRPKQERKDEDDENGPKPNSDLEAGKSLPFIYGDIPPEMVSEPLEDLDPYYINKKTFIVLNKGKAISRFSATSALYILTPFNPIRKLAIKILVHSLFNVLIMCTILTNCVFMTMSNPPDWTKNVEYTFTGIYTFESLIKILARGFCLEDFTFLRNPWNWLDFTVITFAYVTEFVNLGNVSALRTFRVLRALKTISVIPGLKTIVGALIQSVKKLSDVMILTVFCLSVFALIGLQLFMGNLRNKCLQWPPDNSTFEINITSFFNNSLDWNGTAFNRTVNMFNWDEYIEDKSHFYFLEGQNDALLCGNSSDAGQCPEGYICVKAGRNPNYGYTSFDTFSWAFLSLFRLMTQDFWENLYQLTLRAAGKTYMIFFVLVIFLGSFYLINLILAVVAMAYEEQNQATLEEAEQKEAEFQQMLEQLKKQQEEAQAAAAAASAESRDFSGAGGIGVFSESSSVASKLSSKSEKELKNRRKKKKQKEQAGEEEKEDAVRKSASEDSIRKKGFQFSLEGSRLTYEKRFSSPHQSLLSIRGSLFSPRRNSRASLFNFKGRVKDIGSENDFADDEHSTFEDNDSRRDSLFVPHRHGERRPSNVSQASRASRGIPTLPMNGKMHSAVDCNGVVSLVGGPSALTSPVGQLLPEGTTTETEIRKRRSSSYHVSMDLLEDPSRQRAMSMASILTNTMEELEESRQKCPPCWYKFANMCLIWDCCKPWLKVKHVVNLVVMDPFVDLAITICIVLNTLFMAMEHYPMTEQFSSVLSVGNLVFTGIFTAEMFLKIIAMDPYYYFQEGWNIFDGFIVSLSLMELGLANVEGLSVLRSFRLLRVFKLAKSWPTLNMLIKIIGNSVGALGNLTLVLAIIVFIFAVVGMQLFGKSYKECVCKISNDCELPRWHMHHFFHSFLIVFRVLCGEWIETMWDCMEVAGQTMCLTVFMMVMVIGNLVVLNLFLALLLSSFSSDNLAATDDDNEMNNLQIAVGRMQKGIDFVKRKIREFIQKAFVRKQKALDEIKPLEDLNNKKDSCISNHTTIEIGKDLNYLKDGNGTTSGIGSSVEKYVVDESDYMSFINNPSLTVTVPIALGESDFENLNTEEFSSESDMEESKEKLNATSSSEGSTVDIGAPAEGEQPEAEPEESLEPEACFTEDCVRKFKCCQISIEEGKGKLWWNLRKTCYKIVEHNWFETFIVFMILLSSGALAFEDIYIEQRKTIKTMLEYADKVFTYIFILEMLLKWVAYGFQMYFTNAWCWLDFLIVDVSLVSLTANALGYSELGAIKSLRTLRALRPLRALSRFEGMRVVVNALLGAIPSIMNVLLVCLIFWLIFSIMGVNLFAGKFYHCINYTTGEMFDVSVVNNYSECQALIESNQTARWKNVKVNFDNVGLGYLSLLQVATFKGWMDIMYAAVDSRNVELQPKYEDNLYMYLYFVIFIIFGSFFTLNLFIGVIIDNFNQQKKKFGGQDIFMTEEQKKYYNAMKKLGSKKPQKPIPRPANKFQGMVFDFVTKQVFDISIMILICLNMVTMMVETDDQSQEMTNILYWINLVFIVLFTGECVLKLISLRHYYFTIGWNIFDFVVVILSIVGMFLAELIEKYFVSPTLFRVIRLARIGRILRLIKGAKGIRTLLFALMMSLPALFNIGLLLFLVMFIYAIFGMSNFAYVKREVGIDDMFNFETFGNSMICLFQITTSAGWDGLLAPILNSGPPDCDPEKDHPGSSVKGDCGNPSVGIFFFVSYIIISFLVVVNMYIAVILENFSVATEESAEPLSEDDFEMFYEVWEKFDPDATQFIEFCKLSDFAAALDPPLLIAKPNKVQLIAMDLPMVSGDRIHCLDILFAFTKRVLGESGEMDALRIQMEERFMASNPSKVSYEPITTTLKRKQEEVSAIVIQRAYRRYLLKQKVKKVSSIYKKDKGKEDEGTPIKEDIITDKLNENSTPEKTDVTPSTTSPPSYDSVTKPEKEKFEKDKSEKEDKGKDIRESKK

In turn, `O=C1N(Cc2ccccn2)c2cccnc2C12COc1cc3c(cc12)OCCO3` (stereo not drawn) [Example 11, 1′-(pyridin-2-ylmethyl)-2,3-dihydrospiro[furo[2,3-g][1,4]benzodioxine-8,3′-pyrrolo[3,2-b]pyridin]-2′(1′H)-one] gave a melting point of 146 to 147 °C. Also, in series [1], the inhibition at 10 µM was less than 50%. The molecule further showed an IC50 in series [2] of 100 to 1000 nM.

As to `COc1ccc2c(n1)C1(CO2)C(=O)N(C[C@H]2CCCO2)c2ccccc21` (stereo partly drawn) [Example 2, 5-methoxy-1′-[(2R)-tetrahydrofuran-2-ylmethyl]spiro[furo[3,2-b]pyridine-3,3′-indol]-2′(1′H)-one], the melting point was in the range of 52 to 56 °C.

For `CC(=O)N1CCN(c2ccc(OCC3COC(Cn4ccnc4)(c4ccc(Cl)cc4Cl)O3)cc2)CC1` (stereo not drawn) [Ketoconazole], in series [3], 7.62 µM produced 65% inhibition.

`O=C1N(Cc2ncccc2C(F)(F)F)c2cccnc2C12COc1cc3c(cc12)OCCO3` (stereo not drawn) [Example 12, 1′-{[3-(trifluoromethyl)pyridin-2-yl]methyl}-2,3-dihydrospiro[furo[2,3-g][1,4]benzodioxine-8,3′-pyrrolo[3,2-b]pyridin]-2′(1′H)-one] returned a melting point of more than 250 °C. In [1], this molecule came in with an inhibition at 10 µM of less than 50%. In addition, the 50% inhibitory concentration (IC50) in [2] fell in the range of 100 to 1000 nM.

As for `Nc1ccc(S(=O)(=O)Nc2ccnn2-c2ccccc2)cc1` [Sulfaphenazole], in series [4], testing at 0.42 µM gave an inhibition of 50%.

Turning to `NC1=N[C@H](O)[C@H]2[C@H]3O[C@]4(O)O[C@@H]([C@@H](O)[C@@]2(N1)[C@@H]4O)[C@]3(O)CO` [TTX, tetrodotoxin], the “block of the increase in [14C] guanidine influx” value in series [5] is “partially blocked by TTX at 100”; in series [6], “guanidine influx was completely”; in [7] it was “completely blocked using TTX”; in [8] it was “background was partially blocked”; in series [9], “TTX partially blocked influx”.

As to `O=C1N(C[C@H]2CCCO2)c2ccccc2C12COc1c[nH]c(=O)cc12` (stereo partly drawn) [Example 4, 1′-[(2R)-tetrahydrofuran-2-ylmethyl]spiro[furo[2,3-c]pyridine-3,3′-indole]-2′,5(1′H,6H)-dione], the melting point was more than 250 °C. Besides, the inhibition at 10 µM in series [1] is less than 50%. In series [2], this molecule showed an IC50 of 1000 to 10000 nM.

In turn, `COc1ccc2c(n1)C1(CO2)C(=O)N(Cc2ccc3c(c2)OCCO3)c2ccccc21` (stereo not drawn) [Example 3, 1′-(2,3-dihydro-1,4-benzodioxin-6-ylmethyl)-5-methoxyspiro[furo[3,2-b]pyridine-3,3′-indol]-2′(1′H)-one] displayed a melting point of 144 to 146 °C. This molecule also came in with a concentration for half-maximal inhibition (IC50) in series [2] of 1 to 100 nM.

The molecule `O=C1Nc2cccnc2C12COc1cc3c(cc12)OCCO3` (stereo not drawn) [Example 10, 2,3-dihydrospiro[furo[2,3-g][1,4]benzodioxine-8,3′-pyrrolo[3,2-b]pyridin]-2′(1′H)-one] yielded a melting point of more than 250 °C. The molecule also gave an inhibition at 10 µM in series [1] of less than 50%. Also, in [2], the IC50 was 1000 to 10000 nM.

Molecule `COc1ccc2c(n1)C1(CO2)C(=O)N(C[C@H]2CCCO2)c2cccc(Br)c21` (stereo partly drawn) [Example 1, 4′-bromo-5-methoxy-1′-[(2R)-tetrahydrofuran-2-ylmethyl]spiro[furo[3,2-b]pyridine-3,3′-indol]-2′(1′H)-one] returned a melting point of 110 to 112 °C. The inhibition at 10 µM in [1] is less than 50%. The 50% inhibitory concentration (IC50) in series [2] lay within 100 to 1000 nM.

The molecule `O=C1N(Cc2ncccc2C(F)(F)F)c2ncccc2C12COc1cc3c(cc12)OCCO3` (stereo not drawn) [Example 8, 1′-{[3-(trifluoromethyl)pyridin-2-yl]methyl}-2,3-dihydrospiro[furo[2,3-g][1,4]benzodioxine-8,3′-pyrrolo[2,3-b]pyridin]-2′(1′H)-one] displayed an inhibition at 10 µM in series [1] of less than 50%. In addition, in series [2], the IC50 lay within 100 to 1000 nM.

Molecule `COc1ccc2c(n1)C1(CO2)C(=O)N(Cc2ncccc2C(F)(F)F)c2ccccc21` (stereo not drawn) [Example 13, 5-methoxy-1′-{[3-(trifluoromethyl)pyridin-2-yl]methyl}spiro[furo[3,2-b]pyridine-3,3′-indol]-2′(1′H)-one] gave a melting point of 195 to 198 °C. In addition, the inhibition at 10 µM in series [1] was less than 50%. This molecule also registered a half-maximal inhibitory concentration (IC50) in series [2] of 100 to 1000 nM.

In the case of `O=C1Nc2ncccc2C12COc1cc3c(cc12)OCCO3` (stereo not drawn) [Example 6, 2,3-dihydrospiro[furo[2,3-g][1,4]benzodioxine-8,3′-pyrrolo[2,3-b]pyridin]-2′(1′H)-one], the melting point was more than 250 °C. The molecule also yielded an inhibition at 10 µM in series [1] of less than 50%. Besides, the IC50 in series [2] fell in the range of 100 to 1000 nM.

With `O=C1N(Cc2ccccn2)c2ncccc2C12COc1cc3c(cc12)OCCO3` (stereo not drawn) [Example 7, 1′-(pyridin-2-ylmethyl)-2,3-dihydrospiro[furo[2,3-g][1,4]benzodioxine-8,3′-pyrrolo[2,3-b]pyridin]-2′(1′H)-one], the inhibition at 10 µM in [1] is less than 50%. In [2], this molecule yielded a half-inhibitory concentration (IC50) of 1 to 100 nM.

For `C=C[C@H]1C[N@@]2CC[C@H]1C[C@@H]2[C@@H](O)c1ccnc2ccc(OC)cc12` [Quinidine], the inhibition at 0.0137 µM in series [10] was 55%.

One may read the inhibition as how much of the control response was suppressed. Lower therefore signals a response near the control. In general, IC50 refers to the point on the concentration scale where inhibition reaches its midpoint. Read a high IC50 as weaker potency. The term melting point denotes the temperature, or range, at which the solid turns liquid.
